Experimental data: patent US9243247B2, “Composition for promoting apoptosis or inhibiting cell growth, comprising epstein-barr virus microrna” (Catholic University Industry Academic Cooperation Foundation, priority 2011, dated 2016)

Assays:
AGS cell strain = test: Measurement of apoptosis (Annexin V staining, FACS); format: cell-based; conditions: for Relative Apoptotic cell: mimic 10 nM, 10 uM 5-FU 24 h after transfection, then 48 hours, Annexin V, relative to scrambled control (=1), n=9
In short: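 EBV-negative AGS cells (2×10^5/well) were transfected with 10 nM synthetic miRNA. Twenty-four hours later they received 10 uM 5-FU for 48 h at 37 °C. The apoptotic cell ratio was measured by PE Annexin V staining and FACS.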

BIRC6 mRNA = BIRC6 mRNA level by QRT-PCR; format: cell-based; conditions: AGS; 48 hours after transfection
Protocol: miR-BART15-3p was transfected to AGS by using lipofectamine-2000. Forty eight hours after the transfection, the cells were harvested and a QRT-PCR and a Western blotting were performed (FIGS. 12A and 12B). The BIRC6 mRNA level was not changed in the AGS to which miR-BART15-3p was transfected, while the protein level was decreased.
An miR-BART15-3p inhibitor was transfected to AGS-EBV by using lipofectamine-2000. Forty eight hours after the transfection, the cells were harvested and a QRT-PCR and a Western blotting were performed (FIGS. 12C and 12D). The BIRC6 mRNA level was not changed in the AGS-EBV to which an miR-BART15-3p inhibitor was transfected, while the protein level was increased.

[1] = AGS, mimic 10 nM in combination with 10 uM 5-FU

For “BART15-3p: EBV BART miRNA mimic, double stranded RNA; sense SEQ NO: 15, antisense SEQ NO: 16 (sense GUCAGUGGUUUUGUUUCCUUGA; antisense UCAAGGAAACAAAACCACUGAC; chemistry not given here)”, the “ratio of early apoptotic cell” value (AGS cell strain; [1]) was “increased”, the “ratio of late apoptotic cell” value (AGS cell strain; [1]) was “increased” and the “degree of apoptosis, combination with 5-FU versus sum of single treatments” value (AGS cell strain; AGS, mimic 10 nM plus 10 uM 5-FU) was “synergetic effect”. For the same substance, the “ratio of early apoptotic cell” value (AGS cell strain; AGS, mimic 10 nM treated alone) was “increased”, the “ratio of late apoptotic cell” value (AGS cell strain; AGS, mimic 10 nM treated alone) was “increased” and the “Relative Apoptotic cell” value (AGS cell strain; AGS) was 1.665. The “Relative Apoptotic cell” value (AGS cell strain; AGS, listed as 15-3p) was “significantly higher”, the “effect on cell growth and apoptosis (summary statement)” value (AGS cell strain; mimics transfected to AGS, tumor cell strain not infected with EBV) was “inhibit cell growth and promote apoptosis” and the “BIRC6 mRNA level” value (BIRC6 mRNA) was “not changed”.
